Reference: patent US20250025429A1, “LIPID NANOPARTICLES FOR OLIGONUCLEOTIDE DELIVERY” (ZIPHIUS NV, priority 2021, published 2025)

Tests used:
[1] = saRNA encapsulation, Quant-IT RiboGreen assay; format: physicochemical; details: LNP with saRNA; RiboGreen with or without 2% Triton X-100
Procedure: The saRNA loading in LNP formulations was quantified using a Quant-IT RiboGreen assay (Thermo Fisher Scientific, Waltham, Massachusetts, USA) as previously described. 14 samples were diluted tenfold in 1× Tris HCL—EDTA (TE) buffer (10 mM Tris-HCL, 1 mM EDTA, pH 7.5) with or without 2% (v/v) Triton X-100 (Sigma-Aldrich, Saint Louis, Missouri, USA). Standard solutions were also prepared in 1×TE with or without 2% (v/v) Triton X-100 to account for any variation in fluorescence. The assay was performed according to the manufacturer's protocol. Samples were loaded on a black 96-well plate and analysed for fluorescence on a microplate reader (Tecan Infinite@200 PRO) at an excitation of 485 nm and emission at 528 nm. Encapsulation efficiency was calculated between 80-100%.

[2] = Body weight of mice in the in vivo study (tolerability); details: female SWISS mice, 1 μg LNP-formulated saRNA intramuscularly
Procedure: (§1) Female SWISS mice (6 weeks old) were purchased from Janvier Laboratories (Paris, France) and kept in individually ventilated cages with access to food and water ad libitum. Mice were anesthetized with isoflurane (Zoetis, Louvain-La-Neuve, Belgium) (5% for induction and 2% for maintenance) and intramuscularly injected with a total of 1 μg in 100 μL Tris-HCL (50 μL per leg) LNP-formulated luciferase saRNA (for each group n=7). The expression of the luciferase induced bioluminescence was measured via non-invasive In vivo bioluminescent imaging (In vivo Imaging System (IVIS) Lumina III, Perkin Elmer, Waltham, Massachusetts, USA), 10 minutes after subcutaneous injection of 200 μL of D-luciferin (GoldBio, Saint Louis, Missouri, USA, #LUCK-1G) were measured in day 0 (before injection), day 1, day 3, day 5, day 7, day 10, day 15 and day 20. Table 4 and 5 report on the in vivo study using exemplary compounds 10-21, 10-44 and 10-45 and comparator lipids C12-200 and C1. […] Table 5 supports good tolerability of the compounds according to formula I.

[3] = LNP characterisation by Zeta Sizer (particle size, polydispersity, charge); format: physicochemical; details: LNP with saRNA; lipid:DOPE:Cholesterol:DMG-PEG 35:20:43.5:1.5; N/P approximately 40/1
Procedure: Cationic lipids, DOPE, Cholesterol and DMG-PEG lipid were solubilized in ethanol or DMSO at a molar ratio of 35:20:43.5:1.5 and a concentration of 100:25:20:25 μg/μL for C12-200 or 170:25:20:25 μg/μL for the comparator lipids. Lipid nanoparticles (LNP) were prepared by targeting an N/P ratio of approximately 40/1 with saRNA. Briefly, the saRNA was diluted to 0.5 mg/mL in 5 mM citrate buffer, pH 4.5. Microfluidic mixer (Ignite from Precision Nanosystems, California, USA) was used to mix the lipid solution with the saRNA aqueous solution at a ratio of about 1:3 (vol/vol) with total flow rates above 10 ml/min. The ethanol was then removed, and the external buffer replaced with 10 mM TRIS-HCL, pH 7.4, by dialysis. Finally, the lipid nanoparticles were filtered through a 0.2 μm pore sterile filter. Lipid nanoparticle particle size was 50-150 nm diameter and polydispersity index (PI) of 0.1-0.4 as determined by Zeta Sizer (Malvern Panalytical, UK). The charge of the formulation was also measured by Zeta Sizer and ranged between 20 to −20 mV.

[4] = system: luciferase saRNA; test: In vivo bioluminescent imaging after intramuscular injection of LNP-formulated luciferase saRNA; details: female SWISS mice, 1 μg luciferase saRNA intramuscularly
Procedure: as §1

| Encapsulation (%) [1] [%] | Polydispersity Index (PI) [3] | Z-average (nm) [3] [nm] | Zetapotential (mV) [3] [mV] | Structure (SMILES) | Weight ([2]; Day 0 (before injection)) [g] | Weight ([2]; Day 1) [g] | Weight ([2]; Day 3) [g] | Weight ([2]; Day 5) [g] | Weight ([2]; Day 7) [g] | Weight ([2]; Day 10) [g] | Weight ([2]; Day 15) [g] | Weight ([2]; Day 20) [g] | Bioluminescence expression of LNPs ([4]; Day 0 (before injection)) | Bioluminescence expression of LNPs ([4]; Day 1) | Bioluminescence expression of LNPs ([4]; Day 3) | Bioluminescence expression of LNPs ([4]; Day 5) | Bioluminescence expression of LNPs ([4]; Day 7) | Bioluminescence expression of LNPs ([4]; Day 10) | Bioluminescence expression of LNPs ([4]; Day 15) | Bioluminescence expression of LNPs ([4]; Day 20) |
| --- | --- | --- | --- | --- | --- | --- | --- | --- | --- | --- | --- | --- | --- | --- | --- | --- | --- | --- | --- | --- |
| 99.03 | 0.16 | 70.96 | 9.07 | CCCCCCCCCCCCCCOC(=O)CCN(CCC(=O)OCCCCCCCCCCCCCC)CCN1CCN(CCN(CCC(=O)OCCCCCCCCCCCCCC)CCC(=O)OCCCCCCCCCCCCCC)CC1 [Comparator 1 (C1), reference compound] | 26.56 | 25.99 | 27.21 | 27.59 | 27.09 | 27.17 | 29.43 | 30.11 | 3.32E+04 | 2.76E+07 | 1.28E+08 | 7.19E+07 | 8.88E+07 | 5.07E+06 | 8.46E+04 | 4.32E+04 |
| 99.41 | 0.16 | 72.27 | 7.05 | CCCCCCC(CCCC)C(=O)OCCCCN(CCCCOC(=O)C(CCCC)CCCCCC)CCN1CCN(CCO)CC1 (stereo not shown) [Compound 10-21, ((2-(4-(2-hydroxyethyl)piperazin-1-yl)ethyl)azanediyl)bis(butane-4,1-diyl) bis(2-butyloctanoate)] | 27.96 | 28.19 | 28.26 | 27.90 | 28.01 | 27.57 | 28.63 | 30.83 | 3.89E+04 | 3.23E+06 | 5.03E+07 | 8.74E+07 | 5.77E+07 | 7.72E+06 | 2.44E+05 | 1.62E+05 |
| 100.06 | 0.15 | 67.46 | 1.25 | CCCCCCC(CCCC)C(=O)OCCCCN(CCCCOC(=O)C(CCCC)CCCCCC)CCN1CCN(CCN)CC1 (stereo not shown) [Compound 10-44, ((2-(4-(2-aminoethyl)piperazin-1-yl)ethyl)azanediyl)bis(butane-4,1-diyl) bis(2-butyloctanoate)] | 26.84 | 26.46 | 27.00 | 28.13 | 27.94 | 28.11 | 29.31 | 30.04 | 2.87E+04 | 1.61E+07 | 3.62E+07 | 4.98E+07 | 4.24E+07 | 1.09E+06 | 5.87E+04 | 6.12E+04 |
| 100.49 | 0.1 | 81.42 | 2.78 | CCCCCCC(CCCC)C(=O)OCCCCN(CCCCOC(=O)C(CCCC)CCCCCC)CCN1CCN(CCNCCN)CC1 (stereo not shown) [Compound 10-45, ((2-(4-(2-((2-aminoethyl)amino)ethyl)piperazin-1-yl)ethyl)azanediyl)bis(butane-4,1-diyl) bis(2-butyloctanoate)] | 26.93 | 25.79 | 26.43 | 27.10 | 27.27 | 27.69 | 28.19 | 30.21 | 6.00E+04 | 1.09E+07 | 1.90E+07 | 1.72E+07 | 1.68E+07 | 7.02E+05 | 7.94E+04 | 8.63E+04 |
| 95.32 | 0.27 | 98.11 | −5.50 | CCCCCCCCCCC(O)CN(CCN1CCN(CCN(CC(O)CCCCCCCCCC)CC(O)CCCCCCCCCC)CC1)CCN(CC(O)CCCCCCCCCC)CC(O)CCCCCCCCCC (stereo not shown) [Compound C12-200, 1,1′-((2-(4-(2-((2-(bis(2-hydroxydodecyl)amino)ethyl) (2-hydroxydodecyl)amino)ethyl)piperazin-1-yl)ethyl)azanediyl) bis(dodecan-2-ol), reference compound] | 28.61 | 27.17 | 28.62 | 28.98 | 28.97 | 29.23 | 30.16 | 31.23 | 2.39E+04 | 3.36E+08 | 6.19E+08 | 4.79E+08 | 2.47E+08 | 2.20E+07 | 4.80E+05 | 9.12E+04 |
